Assay results from US20250170252A1, “QUINONE PROTECTED FORMS AND CONJUGATES” (CAMBRIDGE ENTERPRISE LIMITED, priority 2022, published 2025).
“Also recorded” adds a separate entry of the source.

How the values were obtained:
[1] = In vitro redox-cycling ability, phenol red/horseradish peroxidase assay; format: biochemical; conditions: HRP/phenol-red reporter assay, absorbance at 610 nm; up to 25 μM
Method: In vitro redox cycling capability of compounds was assessed by phenol red/horseradish peroxidase (HRP) assay by adaption of a previously described protocol (Assay Drug Dev. Technol., 2008, 6, 505-518). Briefly, stocks were prepared as follows: (1) DTT to a concentration of 2.4 μM in PBS pH 7.4 buffer; (2) compound stocks in PBS pH 7.4 buffer to 3× the desired concentration by 1000× dilution of DMSO stocks; (3) a stock of phenol-red-HRP detection reagent containing 300 μg/mL phenol red and 180 μg/mL HRP enzyme in PBS pH 7.4 buffer; (4) a stock of 1 M NaOH in water; (5) a stock of 100 μM H2O2 in PBS prepared by addition of a 30% solution of H2O2 in water into 1000 μL of PBS. Into each well of a 96 well clear flat-bottomed plate was then added 40 μL of compound stock in PBS followed by 40 μL of DTT stock, followed immediately by 40 μL of phenol-red-HRP reagent. A positive control with 100 μM H2O2 added in place of compound was included. The plate was incubated in the dark at room temperature for 15 min. Following this 20 μL of 1 M NaOH was added to each well to terminate the reaction. Absorbance was immediately measured at 610 nm (MiniMax i3x Imager, Molecular Devices). Absorbance of treated wells was normalised to control wells treated with PBS only (zero redox cycling). All readings were performed in triplicate and error bars display standard error of the mean.

HL-60 cells [2] = assay: N-acetyl cysteine cytotoxicity assay; format: cell-based; conditions: HL-60
Method: For assays involving cytotoxicity of β-lapachone derivatives with and without antioxidant N—-acetyl cysteine, HL-60 cells were plated into 24 well plates at a concentration of 2.5×10^5 cells/mL in 450 μL. To each well was then added 25 μL of drug diluted in PBS to obtain the correct in-plate drug concentration, and 25 μL of PBS or a stock of N-acetyl cysteine at 12 mM in PBS. DMSO was maintained at an in-plate concentration of 0.1%. After 96 h incubation, toxicity was assessed by counting of live cells using the Trypan Blue exclusion method with a Countess II Automated Cell Counter (ThermoFisher Scientific) according to the manufacturer's instructions. Cell viability was determined by division of average live cell number of treated wells by average live cell number for control wells treated with 0.1% DMSO. […] Values recorded are the mean of three repeat wells, with error bars representing the standard error of the mean for each concentration tested.

ovine blood [3] = assay: Haemolysis in in vitro ovine blood model; format: cell-based, sheep; conditions: compared with β-lapachone 1
ovine blood [4] = assay: Methaemoglobin analysis in sheep's blood; format: cell-based; conditions: in vitro ovine blood model, 1 h incubation, absorbance at 630 nm
Method: Defibrinated Oxoid™ sheep's blood (ThermoScientific) was diluted to a 5% v/v suspension in PBS pH 7.4. In a 96 well microtiter plate, 150 μL of blood suspension was added to 50 μL of serially diluted compound in PBS containing a 4× stock of each compound of interest. Serial dilution of compounds from DMSO stocks into PBS was performed to achieve an in-plate DMSO concentration of 0.1%. PBS buffer alone was used as a negative control. Three replicates were performed for each compound concentration analysed. The plate was incubated for the specified time at 37° C. The plate was then centrifuged at 3,500 rpm for 5 min. The supernatant was removed and cells lysed by resuspension in 100 μL of a solution of Triton-X-100 (1%) in PBS. Following this 80 μL of lysed cell contents were transferred to a second microtiter plate for UV measurement. To determine methaemoglobin increase, UV absorbance was measured immediately at 630 nm (MiniMax i3x Imager, Molecular Devices). Methaemoglobin increase was determined by (A630−A^0630)/(A^0630)×100, where A630 is the absorbance of the test well at 630 nm, and A^0630 is the absorbance of the negative control at 630 nm. Mean values and standard error of the mean of three independent replicates are plotted.

[5] = system: range of cancer cell lines, including leukaemia, breast, colon, and cervical cancer; assay: Toxicity to a range of cancer cell lines (panel); format: cell-based; conditions: relative to parent drug 1
Method: Assays assessing cytotoxicity of β-lapachone and derivatives were performed by CellTiter-Blue assay (Promega) according to the manufacturer's instructions. Briefly, adherent cancer-cell lines were plated at 20,000 cells/well in 96 well plates or suspension cell lines were plated at a concentration of 2×10^5 cells/mL in 24 well plates. Compound stocks in media were made by dilution of DMSO stocks containing the compound of interest to obtain a final in-plate DMSO concentration of only 0.1%. Incubation was performed for 48 h. Following incubation, media was replaced with media containing CellTiter-Blue (Promega) in 1:10 dilution and the plates were incubated for 1.5-4 h. The fluorescence of the plates was recorded (excitation 555 nm, emission 585 nm, […] Reader, Molecular Devices). Cell viability was calculated by division of the fluorescence intensity of treated wells by that of the calculated average fluorescence intensity of replicate negative control wells containing cells with 0.1% DMSO only. Values and reported error bars represent the mean and standard error of the mean of three triplicate repeats for each concentration tested.

HL-60 cells [6] = assay: Cellular ROS detection with DCFH-DA; format: cell-based; conditions: HL-60, 2′,7′-dichlorodihydrofluorescein diacetate
Method: To determine ROS generation by compounds in leukaemia cells, HL-60 cells were washed with PBS, then incubated in serum free media (10 mL of 1.6×10^6/mL cell concentration) with 2,7-dichlorofluorescin diacetate (DCFH-DA) at 20 μM for 30 min at 37° C. Following this, the cells were washed with PBS and resuspended in Fluorbrite-DMEM media (ThermoFisher) (10 mL). 450 μL of the cell mixture was seeded into wells of a clear flat bottomed 12 well plate, to which 50 μL of a 10× stock of the compounds in media had been already added, to achieve a final compound concentration of 50 μM. The 10× media stocks were made by 100-fold dilution of DMSO compound stocks, to ensure a final in-plate DMSO concentration of 0.1%. DMSO 0.1% only was used as a negative control. H2O2 was used as a positive control, for which 10 μL of a 30% aqueous solution was dissolved into 1 mL DMSO, then diluted 100-fold into media for plating, to give a final H2O2 concentration of […]. After plating the cells were immediately incubated at 37° C. in the dark for 15 min before the fluorescence of the wells (excitation 485 nm, emission 535 nm) was recorded (MiniMax i3x Imager, Molecular Devices). Values recorded are the mean of three repeat wells, with error bars representing the standard error of the mean.

HL-60 cells [7] = assay: Lysosomal inhibition assay with small molecule prodrugs; format: cell-based; conditions: HL-60, compared with untreated
Method: Assays to assess the effect of lysosomal activity on prodrugs were performed as follows: HL-60 cells were plated into 96 well plates at a concentration of 2.5×10^5 cells/mL in 180 μL media. Cells were treated with 10 μL of a stock of NH4Cl in PBS (to obtain an in-plate concentration of 3 or 30 mM), 10 μL of a dilution of a DMSO stock of E64d in PBS (to obtain an in-plate concentration of 30 μM), PBS only, or a dilution of DMSO in PBS. Cells were incubated for 30 min. Following this, 10 μL of a stock of test compound made by dilution of a DMSO stock into media was added. DMSO was present in-plate at a maximum of 0.2%. Cells were incubated overnight for 16 h. Following incubation, media was replaced with media containing CellTiter-Blue (Promega) in 1:4 dilution and the plates were incubated for 6 h. The fluorescence of the plates was recorded (excitation 555 nm, emission 585 nm, MiniMax i3x Reader, Molecular Devices). Cell viability was calculated by division of the fluorescence intensity of treated wells by that of the calculated average fluorescence intensity of the relevant negative control wells. Values and reported error bars represent the mean and standard error of the mean of three triplicate repeats for each concentration tested.

MOLM-13 = assay: Viability assay with small molecule prodrugs, Trypan Blue exclusion, MOLM-13; format: cell-based; conditions: MOLM-13
Method: (§1) For assays assessing cytotoxicity of β-lapachone versus small molecule dipeptide prodrugs, suspension cells were plated into 24 well plates at a density of 2.5×10^5 cells/mL in 240 μL. Serial dilutions of compound were made up in PBS. 60 μL of each stock of either PBS, or compound in PBS was added to the cells to achieve the desired final concentration. After the specified incubation time, toxicity was assessed by counting of live cells using the Trypan Blue exclusion method with a Countess II Automated Cell Counter (ThermoFisher Scientific) according to the manufacturer's instructions. Cell viability was determined by division of average live cell number of treated wells by average live cell number for control wells treated with PBS only. Values recorded are the mean of three repeat wells, with error bars representing the standard error of the mean for each concentration tested. IC50 values were calculated using GraphPad Prism software.

HL-60 = assay: Viability assay with small molecule prodrugs, Trypan Blue exclusion, HL-60; format: cell-based
Method: as §1

methaemoglobin formation (ovine blood [4]) | IC50 relative to 1 (MOLM-13) | IC50 relative to 1 (HL-60) | Structure (SMILES) | redox activity (in vitro redox-cycling capability) [1] | change of IC50 upon NAC addition (HL-60 cells [2]) | haemolysis of haemoglobin (ovine blood [3]) | decrease in toxicity [5] | ROS generation (HL-60 cells [6]) | toxicity after lysosomal deacidification (NH4Cl) or inhibition (E64d) (HL-60 cells [7])
did not occur |  |  | CC1(C)CCC2=C(O1)c1ccccc1C(O)(Cc1ccccc1)C2=O (stereo not drawn) [Compound 24, 6-benzyl-6-hydroxy-2,2-dimethyl-2,3,4,6-tetrahydro-5H-benzo[h]chromen-5-one] | no measurable redox activity; also recorded: non-redox active | unchanged | lower | > 20 fold | did not generate detectable ROS | 
did not occur |  |  | CC1(C)CCc2c3c(c4ccccc4c2O1)OCCO3 [Compound 25, 7,7-dimethyl-2,3,5,6-tetrahydro-1,4,8-trioxatriphenylene, reference compound] | no measurable redox activity |  | lower |  |  | 
 | 10 fold | 10 fold | CC(C)[C@H](NC(=O)OCc1ccccc1)C(=O)N[C@@H](CCCNC(N)=O)C(=O)Nc1ccc(CC2(O)C(=O)C3=C(OC(C)(C)CC3)c3ccccc32)cc1 (stereo partly drawn) [Compound 26, Cbz-Val-Cit-para-aminobenzyl β-lapa-ketol] |  |  |  |  |  | less toxic
